Test results taken from patent publication US9253997B2, “Alkylamine derivative” (AJINOMOTO CO., INC., priority 2010, dated 2016).
pEC50: −log10 of the molar value.

What was measured:
[1] = test system: NSAID-induced small intestine inflammation; assay: Effect against NSAID-induced small intestine inflammation; type: in vivo, rat; conditions: 30 minutes before loxoprofen 60 mg/kg oral, 24 hours
Protocol: (Method) To a non-fasting rat, Compound No. 1 or 2 (the compound described in Example 14) (10 mg/kg) or Compound No. 3 (the compound described in Example 48) (3, 10 or 30 mg/kg) was orally administered. After 30 minutes, loxoprofen (60 mg/kg) was orally administered and the rat was left for 24 hours. Thirty minutes before the autopsy, 1 ml of 1% (w/w) Evansblue dye was intravenously administered to the rat. The small intestine (from duodenum to ileum) of the animal euthanized under deep ether anesthesia was isolated and immersed in 2% formalin for 10 minutes to fix the small intestine from the serosa side. The small intestine was dissected from the opposite side of the mesentery to measure the injury area (mm^2) thereof under a 10× dissecting microscope. T-test or Dunnett's test was employed as the statistical test where p<0.05 was considered to indicate significant difference.

[2] = test system: large intestine loop; assay: Water absorption action using rat colon loop technique; type: in vivo; conditions: male SD (IGS) rat colon loop, PGE2 4 μg/ml/kg i.p., compound in Tyrode's solution injected into loop, 1 hour; FIGS. 5-8
Protocol: (Method) Appendix and large intestine were isolated from a male SD (IGS) rat under pentobarbital anesthesia, which were ligated 5 cm below the appendix to prepare a large intestine loop. Immediately after loop preparation, PGE2 (4 μg/ml/kg, SIGMA) was intraperitoneally administered. Thirty minutes later, 2 ml of Tyrode's solution (NaCl 136.9 mM, KCl 2.7 mM, CaCl2.2H2O 1.8 mM, MgCl2.6H2O 1.04 mM, NaH2PO4.2H2O 0.04 mM, NaH2PO4.2H2O 0.04 mM, Glucose 5.55 mM, NaHCO3 11.9 mM) was injected into the prepared loop. An hour later, weight of the loop, weight of the loop after removing the fluid therefrom and the loop area were measured to calculate the weight of liquid remaining in the loop per unit area.
The above-described Compounds Nos. 1-3 and Compound No. 4 (the compound described in Example 47) were used as the test compounds while the agents were dissolved in Tyrode's solution. Remaining liquid measure per unit area (g/cm^2)=(weight of loop−weight of loop after removing fluid therefrom)/loop area.
Water absorption was assessed by calculating water regulating effect (%) according to the following formula. Water regulating effect (%)=100−(remaining liquid measure per unit area obtained with agent−average remaining liquid measure per base unit area)/(remaining liquid measure per unit area obtained with vehicle−average remaining liquid measure per base unit area)×100.

[3] = test system: serum iPTH; assay: Effect of decreasing iPTH in rat by single dose of intravenous administration; type: in vivo; conditions: male SD (IGS) rat, 0.1 mg/kg, compared with cinacalcet
Protocol: (Method) A single dose was given to male SD (IGS) rat under pentobarbital anesthesia from a tail vein to examine the transition of serum iPTH and serum Ca concentration. Blood was taken before the administration and 5, 15, 30 and 60 minutes after the administration.
Compound No. 1 (the compound described in Example 6) was dissolved in physiological saline. Meanwhile, cinacalcet as a control substance was dissolved in PEG400: Saline=1:1 solution.

[4] = molecular target: human CaSR (Homo sapiens (Human), UniProt P41180); assay: Assessment of CaSR agonistic activity (FLIPR Ca2+ fluorescence); type: cell-based; conditions: 293E cells transfected with hCaSR/pcDNA3.1, Calcium 4 Assay Kit, 1.5 mM CaCl2 assay buffer
Chain of human CaSR (P41180 20-1078): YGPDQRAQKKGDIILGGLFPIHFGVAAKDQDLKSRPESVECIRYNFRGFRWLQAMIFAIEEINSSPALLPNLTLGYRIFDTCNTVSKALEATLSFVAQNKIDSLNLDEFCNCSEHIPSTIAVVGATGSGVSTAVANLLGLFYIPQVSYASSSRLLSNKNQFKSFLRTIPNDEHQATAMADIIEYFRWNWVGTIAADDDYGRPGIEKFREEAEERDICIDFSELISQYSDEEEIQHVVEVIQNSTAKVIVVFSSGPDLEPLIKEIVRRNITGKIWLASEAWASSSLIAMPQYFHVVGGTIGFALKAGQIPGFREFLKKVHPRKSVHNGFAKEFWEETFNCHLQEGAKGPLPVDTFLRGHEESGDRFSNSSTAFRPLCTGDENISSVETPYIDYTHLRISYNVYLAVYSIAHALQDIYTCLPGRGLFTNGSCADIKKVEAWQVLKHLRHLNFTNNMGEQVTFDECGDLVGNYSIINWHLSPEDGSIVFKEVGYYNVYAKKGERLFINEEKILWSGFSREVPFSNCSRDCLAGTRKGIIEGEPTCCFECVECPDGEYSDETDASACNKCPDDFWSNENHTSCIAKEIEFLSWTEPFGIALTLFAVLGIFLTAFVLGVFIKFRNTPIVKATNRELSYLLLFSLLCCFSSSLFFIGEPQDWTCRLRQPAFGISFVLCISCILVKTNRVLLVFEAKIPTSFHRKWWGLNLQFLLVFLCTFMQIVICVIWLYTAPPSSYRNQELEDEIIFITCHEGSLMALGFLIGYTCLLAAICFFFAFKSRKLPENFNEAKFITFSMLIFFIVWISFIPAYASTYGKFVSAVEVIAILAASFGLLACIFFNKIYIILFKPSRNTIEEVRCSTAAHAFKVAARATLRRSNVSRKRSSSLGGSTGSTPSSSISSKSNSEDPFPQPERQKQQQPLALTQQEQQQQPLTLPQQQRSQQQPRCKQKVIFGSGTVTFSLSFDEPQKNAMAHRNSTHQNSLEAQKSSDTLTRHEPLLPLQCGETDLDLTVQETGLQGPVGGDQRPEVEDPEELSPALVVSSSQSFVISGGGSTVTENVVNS
Protocol: CaSR gene was prepared according to the method described in Example 1 of WO07/55393. The resulting recombinant plasmid was used to generate human CaSR-expressing plasmid hCaSR/pcDNA3.1.
293E cells (EBNA1-expressing IIEK293 cells, ATCC No. CRL-10852) were cultured in DMEM ([…] Glucose-containing Dulbecco's modified Eagle medium, Nacalai Tesque) containing 10% bovine fetal serum in the presence of 250 μg/ml of G418. The cells were seeded on a 10 cm-diameter petri dish at 1.8×10^6 cells/15 ml, and left to stand in a CO2 incubator (5% CO2, 37° C.) for 24 hours. Thereafter, human CaSR expression plasmid hCaSR/pcDNA3.1 was transfected with transfection reagent Mirus Trans IT 293 (Takara Bio). Following static culture in a CO2 incubator for 24 hours, the cells were harvested with 10% bovine fetal serum-containing DMEM and seeded on a poly-D-lysine coat 384 well plate (Falcon) at 15,000 cells/well. Following static culture in a CO2 incubator for 24 hours, the medium was removed and the resultant was added with 50 μl/well of Ca^2+ fluorescent indicator Calcium 4 Assay Kit (Molecular Devices) dissolved in an assay buffer (146 mM NaCl, 5 mM KCl, 1 mM MgSO4, 1 mg/ml Glucose, 20 mM HEPES (PH 7.2), 1.5 mM CaCl2), and left to stand at 37° C. for an hour and then at room temperature for 30 minutes to allow intake of the indicator. The above-mentioned 384-well plate was transferred to FLIPR (Molecular Devices) and added with 12.5 μl/well of a compound dissolved in a 0.1% BSA-containing assay buffer to measure 3-minute change in the fluorescence intensity.
The difference between maximum and minimum fluorescence intensities before and after compound addition (RFU (Max-Min)) was determined by FLIPR automatic calculation. An activity rate was calculated where RFU (Max-Min) upon addition of a compound at a maximum concentration was defined 100% and RFU (Max-Min) upon addition of DMSO as a substitute for the compound at the same concentration was defined 0%. […]

[5] = non-fasting rat, 10 mg/kg oral, FIG. 3

SMILES	water absorption (water regulating effect) [2]	injury area of small intestine [1, 5]	pEC50 [4]	also measured
Cc1c(Cl)cc(NC(=S)NC[C@H](N)C(=O)O)cc1S(=O)(=O)O [Example 48, (2S)-2-amino-3-{[(3-chloro-4-methyl-5-sulfophenyl)carbamothioyl]amino}propanoic acid]	promoted water absorption in a dose-depending manner			injury area of small intestine ([1]; non-fasting rat, 3, 10 or 30 mg/kg oral, FIG. 4): showed a tendency to improve the injury area
N[C@@H](CNC(=O)Nc1cc(Cl)cc(S(=O)(=O)O)c1O)C(=O)O [Example 6, (2S)-2-amino-3-{[(5-chloro-2-hydroxy-3-sulfophenyl)carbamoyl]amino}propanoic acid]	promoted water absorption in a dose-depending manner	significantly improved the injury area		decreasing serum iPTH ([3]; FIG. 1): almost the same effect as cinacalcet; decreasing serum Ca ([3]; FIG. 2): almost the same effect as cinacalcet
Cc1c(Cl)cc(S(=O)(=O)O)cc1NC(=S)NC[C@H](N)C(=O)O [Example 47, (2S)-2-amino-3-{[(3-chloro-2-methyl-5-sulfophenyl)carbamothioyl]amino}propanoic acid]	promoted water absorption in a dose-depending manner			
N[C@@H](CCC(=O)Nc1cc(Cl)cc(S(=O)(=O)O)c1O)C(=O)N1CCOCC1 [Example 58, 3-[(4S)-4-amino-5-(morpholine-4-yl)-5-oxopentanamide]-5-chloro-2-hydroxybenzene-1-sulfonic acid]			5.51	
Cc1c(Cl)cc(S(=O)(=O)O)cc1NC(=O)NC[C@H](N)C(=O)O [Example 14, (2S)-2-amino-3-{[(3-chloro-2-methyl-5-sulfophenyl)carbamoyl]amino}propanoic acid]	promoted water absorption in a dose-depending manner	showed a tendency to improve the injury area	8.52	
N[C@@H](CCC(=O)Nc1cc(Cl)cc(S(=O)(=O)O)c1O)C(=O)NC1CCCCCC1 [Example 60, 3-[(4S)4-amino-4-(cycloheptylcarbamoyl)butanamide]-5-chloro-2-hydroxybenzene-1-sulfonic acid]			5.47	
